Results taken from US6806077B1 (priority 1997, dated 2004).
Read-outs that look alike come from different tables or passages of the source.

Legend:
PrPres [1] = assay type: in vivo; conditions: C57BL/6 mice inoculated i.p. with strain C506M3; AmB 1 mg/kg from tA+15 days; sacrificed at tA+21 or tA+28; Western blot, versus untreated animals
PrPres [2] = system: PrPres; parameters: species or system C57BL/6 mice; conditions: mouse, in vivo, ip, 25 mg/kg

How did the “inhibition of the accumulation of PrPres in the spleen” value (PrPres [1]) turn out when `C[C@@H]1[C@H](O)[C@@H](C)/C=C/C=C/C=C/C=C/C=C/C=C/C=C/[C@H](O[C@@H]2O[C@H](C)[C@@H](O)[C@H](N)[C@@H]2O)C[C@@H]2O[C@](O)(C[C@@H](O)C[C@@H](O)[C@H](O)CC[C@@H](O)C[C@@H](O)CC(=O)O[C@H]1C)C[C@H](O)[C@H]2C(=O)O` [AmB, amphotericin B] was run?
Its value is “significant inhibition of the accumulation of PrPres”.

With dextran sulphate [DS500] as the molecule, how does the “inhibition of the accumulation of PrPres in the spleen” value (PrPres [2]) read?
Its value is “significant inhibition of the accumulation of PrPres”.
